Test results from patent US20030191131A1, “Use of organic compounds” (priority 2002, published 2003).

Experiments:
[1] = tested on: constitutively activated mutant canine KIT (BR and C2 cells); test: KIT autophosphorylation in BR and C2 cell lysates (anti-P-Tyr Western immunoblot); type: cell-based
Description: Antibodies: A polyclonal rabbit anti-KIT antibody (c-kit Ab-1) was used at a dilution of 1:500 (c-kit Ab-1; Oncogene, Cambridge, Mass.). An anti-phosphotyrosine antibody (PY20) was used at a dilution of 1:1000 (PY20 Transduction Laboratories; Lexington, Ky.). Peroxidase conjugated goat anti-mouse antibody was used at a dilution of 1:5000 and goat anti-rabbit antibody at a dilution of 1:10,000 (Pierce; Rockford, Ill.).
(§1) Cell lines: BR and C2 canine mastocytoma cells lines were obtained from Dr. George Caughey (University of California at San Francisco, San Francisco, Calif.). Both cell lines were maintained in DMEM supplemented with 2% bovine calf, 1 mM L-glutamine, 12.5 mM HEPES (pH 7.5), 0.25 mg/mL Histidine, 1% Penicillin-Streptomycin and 1% fungizone. The BR and C2 cells were derived from canine mast cell tumors and were originally established in long-term culture after initial passaging in immunodeficient mice (DeVinney et al., Am. J. Respir. Cell Mol. Biol., Vol. 3, No. 5, pp. 413-420 (1990); Lazarus et al., Am. J. Physiol., Vol. 251, No. 6, Pt 1, pp. C935-C944 (1986)). The BR cell line has a point mutation (T1752C) resulting in a Leucine to Proline substitution at amino acid 575 (juxtamembrane domain). The C2 cell line has an internal tandem duplication (ITD) of the KIT juxtamembrane region.
Protein lysates: BR and C2 cells were washed ×2 in PBS and then quiesced in Optimem (Gibco-BRL) at 37° C. for approximately 18 hours.
Dermatol., Vol.114, No. 2, pp. 392-394 (2000)).

[2] = tested on: BR or C2 cells; test: Proliferation of BR or C2 cells (cell lines not separated); type: cell-based, canine
Description: as §1

[3] = tested on: cutaneous mast cell tumors; test: Prospective case series of pet dogs with measurable cutaneous mast cell tumors; type: in vivo, dog; details: 25 mg/kg PO QD x 60 days of SALT I
Description: The study patients are pet dogs with measurable and histologically-confirmed mast cell tumors. Cases are limited to those with measurable lesions amenable to biopsy.
Pretreatment evaluation of all cases include physical examination, complete blood count, buffy coat, serum biochemistry, urinalysis, serum bile acids (fasting and post-prandial), documentation of regional lymph node size, abdominal radiographs and abdominal ultrasound. The treatment regimen is 25 mg/kg PO QD×60 days of SALT I.
Treatment is continued in all cases for 60 days unless disease progression is noted. In cases experiencing partial response or complete response ongoing therapy for an additional 60 days may be considered. Cases successfully completing therapy are eligible for repeat entry to study.
The efficacy of COMPOUND I is assessed against measurable cutaneous mast cell tumors, using clinical endpoints. Biological endpoints may be taken from serial biopsies collected from cutaneous tumors and from blood samples available through the treatment course.
Clinical endpoints include response rate of measurable tumors, objective response against measurable tumor, and time to progression of measurable tumor. All adverse side effects will be recorded.
Furthermore, it may be observed that more animals obtaining treatment show Stable Disease (SD), while less treated animals show Progressive Disease (PD). […]

Cc1ccc(NC(=O)c2ccc(CN3CCN(C)CC3)cc2)cc1Nc1nccc(-c2cccnc2)n1 [COMPOUND I]
Inhibition of KIT autophosphorylation ([1]; 0.1 μM dose, BR or C2 cells): Near complete inhibition
Autophosphorylation of c-kit ([1]; 0.001-0.01 μM doses, BR or C2 cells): Limited autophosphorylation
Inhibition of KIT autophosphorylation ([1]; 10 and 1.0 μM doses, BR or C2 cells, 90 minutes incubation, no SLF): complete inhibition
Potency on mutated c-kit receptor compared with wild type c-kit receptor ([1]; BR and C2 cells against literature wild type value): more potent inhibitor of this mutated receptor than it is of the wild type c-kit receptor
Expression of c-kit protein (membrane reprobed with anti-c-kit antibody) ([1]; treated BR or C2 cells): no change in expression of c-kit protein
Inhibition of proliferation ([2]; 0.001-0.01 μM, 48-72 hours): Partial inhibition
Morphologic observations of inhibitor treated cells ([2]; data not shown): changes consistent with apoptosis
Objective Tumors Responses [3]: are observed
